Legend:
athlete's foot = assay: Patients with athlete's foot; format: in vivo; settings: 50 mM added to miconazole cream
Method: A runner develops athlete's foot. […] They substitute a cream containing the same ingredients, with the exception that S-nitroso-N-acetyl cysteine has been added so as to be present at a concentration of 50 mM.
A marathon runner develops athlete's foot. They treat themself with a topical mixture of inorganic nitrite, acetic acid and thiol in a cream base.

E. coli [1] = assay: Patients with E. coli septicemia; format: in vivo
Method: A person with fever, mild hypotension, and moderate hematuria has blood and urine cultures that are positive for E. coli. They are given a diagnosis of E. coli septicemia and urinary tract infection. […]
A person with E. coli sepsis presents feeling nauseated and gravely ill. However, their blood pressure is stable. They receive a standard regimen of IV antibiotics, including ampicillin and gentamicin as well as the siderophore ferrioxamine B at a dose of 10 mg/kg.
A person with E. coli sepsis presents with a blood pressure of 80/50 mm Hg. Broad spectrum antibiotics are initiated including ampicillin and gentamicin. […] The patient then receives an intravenous dose of nitrosated chloramphenicol, 12.5 mg four times/day IV together with methylene blue IV at a dose of 5 mg/kg as well as fluid support.

rickettsia = format: in vivo; settings: 4 mmol/kg four times a day p.o. with chloramphenicol 12.5 mg four times a day p.o.
E. coli [2] = assay: Patient with E. coli caused gastroenteritis with bloody diarrhea; format: in vivo
Method: A patient with E. coli caused gastroenteritis with bloody diarrhea is administered α-ethyl-L-buthionine-S-sulfoximine (hereinafter α-ethyl BSO) orally at a dose of 10 mmol/kg body weight four times a day.
A patient with E. coli caused gastroenteritis and bloody diarrhea is administered α-ethyl BSO orally at a dose of 10 mmol/kg body weight four times a day. In addition, the patient is given chloramphenicol orally at a dose of 12.5 mg/kg four times a day. Bloody diarrhea resolved in 36 hours.

[3] = target: T1, E. coli gamma-glutamylcysteine synthetase (Escherichia coli, UniProt P0A6W9); assay: Inactivation of E. coli gamma-GCS by homocysteine sulfoximines (preincubation with ATP, residual activity by coupled PK/LDH assay); format: biochemical; settings: on an active isomer basis
T1 construct: made in house
T1 sequence (P0A6W9 whole entry): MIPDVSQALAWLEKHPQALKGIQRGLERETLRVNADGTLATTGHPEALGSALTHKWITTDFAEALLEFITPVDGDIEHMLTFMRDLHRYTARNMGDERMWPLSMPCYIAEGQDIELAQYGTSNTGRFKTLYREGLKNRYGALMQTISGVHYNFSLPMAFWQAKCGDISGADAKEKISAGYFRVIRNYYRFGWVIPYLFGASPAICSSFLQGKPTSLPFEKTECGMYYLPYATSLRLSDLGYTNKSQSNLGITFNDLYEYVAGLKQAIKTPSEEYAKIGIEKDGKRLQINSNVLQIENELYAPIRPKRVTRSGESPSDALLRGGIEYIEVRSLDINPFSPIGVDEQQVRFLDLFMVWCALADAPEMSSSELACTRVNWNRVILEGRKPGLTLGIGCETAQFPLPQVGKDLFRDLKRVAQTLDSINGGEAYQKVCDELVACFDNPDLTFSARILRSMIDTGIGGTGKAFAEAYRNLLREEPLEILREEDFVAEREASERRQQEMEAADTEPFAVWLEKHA
Method: E. coli gamma-GCS was isolated from bacterial cells engineered to overexpress the enzyme; the isolation procedure was similar to that used previously to isolate mammalian gamma-GCS. […] The enzyme was assayed in reaction mixtures (final volume=1.0 ml) containing: 150 mM Tris·HCl, pH 8.2, 100 mM KCl, 25 mM MgCl2, 7.5 mM ATP, 7.5 mM phosphoenolpyruvate, 0.3 mM EDTA, 10 mM L-glutamate, 10 mM L-α-aminobutyrate (an L-cysteine analog), 0.3 mM NADH, 5 IU pyruvate kinase, and 5 IU lactate dehydrogenase. Reaction was initiated by adding gamma-GCS; in control studies, L-α-aminobutyrate was omitted from the reaction mixture. In this assay, pyruvate kinase (PK) and lactate dehydrogenase (LDH) are added in excess to detect formation of ADP, one of the products of the gamma-GCS reaction. The relevant enzyme reactions are shown as equations 1–3 below. Oxidation of NADH to NAD^+ is followed and quantitated spectrophotometrically at 340 nm (1 μmol oxidation gives ΔOD=−6.2) and is directly proportional to product formation by gamma-GCS. [drawing 2]
Inhibition by homocysteine sulfoximines was carried out by preincubating the E. coli gamma-GCS with potential inhibitors in the presence of ATP and then removing aliquots of that mixture at specific times and assaying for residual activity using the assay procedure described above. The preincubation reaction mixtures contained (final volume=400 μl) the following: 210 mM Tris·HCl, pH 8.2, 142 mM KCl, 36 mM MgCl2, 10 mM ATP, 0.4 mM EDTA, various amounts of sulfoximine, and gamma-GCS. At intervals, 50 μl aliquots were removed and added to 1.0 ml assay reaction mixtures to determine residual activity spectrophotometrically. Results of a study indicate that E. coli gamma-GCS loses about 27% of its activity over 30 minutes in the absence of added inhibitors; this loss of activity represents an inherent instability in the enzyme when incubated under these reaction conditions in this particular experiment. […]

Chlamydia trachomatous = assay: Patients with Chlamydia cervicitis and vaginitis; format: in vivo; settings: α-ethyl BSO 4 mmol/kg and nitrate ester of chloramphenicol 12.5 mg/kg, each four times a day p.o.
Description: A person with a history of multiple sexual partners and recurrent urinary tract infections presents with cervicitis and vaginitis of four days duration. The patient complains of pain and vaginal discharge.

rat kidney gamma-GCS = target: T2, rat kidney gamma-GCS (Rattus norvegicus, UniProt P19468); assay: Inhibition of mammalian gamma-GCS, protocol similar to E. coli enzyme; format: biochemical
T2 construct: highly purified rat kidney gamma-GCS; from tissue; host or cells: rat kidney
T2 sequence (P19468 whole entry): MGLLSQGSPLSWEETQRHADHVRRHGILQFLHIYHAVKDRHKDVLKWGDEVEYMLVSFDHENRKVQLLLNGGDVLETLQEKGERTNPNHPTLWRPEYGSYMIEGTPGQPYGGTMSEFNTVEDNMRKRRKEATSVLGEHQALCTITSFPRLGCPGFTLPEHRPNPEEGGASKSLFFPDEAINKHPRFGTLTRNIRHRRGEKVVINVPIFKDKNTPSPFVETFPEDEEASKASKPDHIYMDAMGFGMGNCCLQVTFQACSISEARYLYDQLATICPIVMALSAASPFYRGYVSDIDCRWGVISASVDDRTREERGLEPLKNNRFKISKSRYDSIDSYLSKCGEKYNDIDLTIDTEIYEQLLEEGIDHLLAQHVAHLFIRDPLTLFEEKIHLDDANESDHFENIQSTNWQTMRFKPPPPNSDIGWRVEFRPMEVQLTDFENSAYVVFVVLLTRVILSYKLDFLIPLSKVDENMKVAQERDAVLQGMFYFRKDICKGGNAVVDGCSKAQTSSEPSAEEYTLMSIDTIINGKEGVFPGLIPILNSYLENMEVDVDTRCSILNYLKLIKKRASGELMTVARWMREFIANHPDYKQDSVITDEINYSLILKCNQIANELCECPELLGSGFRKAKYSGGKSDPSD
T2 sequence (P48508 whole entry partner): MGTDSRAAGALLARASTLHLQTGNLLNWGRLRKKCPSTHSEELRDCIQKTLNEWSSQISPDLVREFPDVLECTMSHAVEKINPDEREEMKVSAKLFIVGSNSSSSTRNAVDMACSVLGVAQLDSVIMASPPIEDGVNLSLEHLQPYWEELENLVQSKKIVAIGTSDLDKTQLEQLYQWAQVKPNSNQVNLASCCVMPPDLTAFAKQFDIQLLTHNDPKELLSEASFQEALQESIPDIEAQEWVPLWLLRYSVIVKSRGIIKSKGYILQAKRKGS

oral thrush = assay: Patients with oral thrush; format: in vivo; settings: 2 cc of 50 mM, swish and spit, three times/day
Method: An immunocompromised person who is status-post recent chemotherapy develops oral thrush.
A person with leukemia develops oral thrush and is given 2 cc of 50 mM S-nitrosoglutathione, swish and spit, three times/day.
An immunocompromised person with HIV and a low CD4 count develops oral thrush. They are given 5 cc of a solution of 10 mM nitrate.

trypanosomes = assay: Patient with trypanosome infection; format: in vivo; settings: L-buthionine-S-sulfoximine 3 mmol/kg p.o. every 4 hours and S-nitrosoglutathione iv 10 mg/kg every 8 hours, one week
Method: A person presents with high fever, moderate lymphadenopathy and reports that they have lost 40 pounds in the last month, two months after returning from a safari in sub-Saharan Africa. On questioning, the patient reports having developed during the safari an ulcer on their forearm two days following a bite by a fly. […] The patient is hospitalized and given L-buthionine-S-sulfoximine at a dose of 3 mmol/kg p.o. every 4 hours for one week. In addition, the patient receives S-nitrosoglutathione iv at a dose of 10 mg/kg every 8 hours for one week.

[4] = system: mixed flora and gram-negativerods; assay: Diabetic patient with infected skin ulcer; format: in vivo; settings: topical cream with S-nitrosoglutathione, oxidized glutathione and dinitrophenacyl glutathione
Description: A patient with diabetes develops a skin ulcer on the lower aspect of their left leg. Cultures grow mixed flora and gram-negativerods. A topical cream is applied that contains S-nitrosoglutathione, oxidized glutathione and the glutathione S-conjugate dinitrophenacyl glutathione.

S. typhimurium = settings: J. Gen. Microbiol. 72, 291–301 (1972); cited from earlier work
mycoplasma = settings: 250 mg three times a day
Streptomycetes = assay: Immunocompromised patient with Streptomycetes lesion; format: in vivo; settings: 4 mmol/kg three times a day p.o. with trimethoprim and sulfamethoxazole, one month
Method: An immunocompromised patient recovering from bone marrow transplantation develops a lump in their cheek at a place previously scratched by a garden implement. A culture obtained from the lump is positive for Streptomycetes. The patient is given DL-α-amino-δ-butylthio valeric acid-SR-sulfoximine at a dose of 4 mmol/kg body weight three times a day p.o. The patient is also given trimethoprim (160 mg twice a day) and sulfamethoxazole (800 mg twice a day) for one month.

Actinomycetes israelii = assay: Patient infected with Actinomycetes israelii; format: in vivo; settings: 1 mg/kg four times per day i.v.
Description: A patient infected with Actinomycetes israelii has a low-grade fever, non-productive cough, and occasional hemoptysis.

E. coli [5] = settings: chloramphenicol alone; cited from earlier work
[6] = system: metastatic malignant melanoma; assay: Patient with metastatic malignant melanoma; format: in vivo; settings: L-buthionine-S-sulfoximine 2 mmol/kg p.o. every 4 hours and hydroxyurea 10 mg/kg p.o., one week
Method: A person […] and a history of surgery five years previously to remove malignant melanotic nevi from their upper back and chest is found to have blood in their stool on routine physical examination. […] The patient is administered L-buthionine-S-sulfoximine (2 mmol/kg) p.o. every 4 hours for one week and is given 10 mg/kg of hydroxyurea p.o. 1 hour after every third dose of L-buthionine-S-sulfoximine. […] The patient shown no further evidence of metastases during a six month follow-up.

CC(=O)N[C@@H](CSN=O)C(=O)O [S-nitroso-N-acetyl cysteine]
clinical outcome (athlete's foot): symptoms improve over seven days

CCCCS(=N)(=O)CCC(N)(CC)C(=O)O [α-ethyl-L-buthionine-S-sulfoximine]
clinical outcome (E. coli [1]; resistant to conventional antibiotics, 4 mmol/kg four times a day p.o. plus hyperbaric 100% oxygen, ampicillin and gentamicin continued): symptoms resolve within four days
clinical outcome (E. coli [1]; septicemia and urinary tract infection, α-ethyl BSO 4 mmol/kg four times a day p.o., S-nitroso-gamma-methyl-L-homocysteine 50 μg/kg i.v., gentamicin): symptoms resolve and blood and urine cultures are negative for E. coli after two weeks
time until patient becomes well (rickettsia): 10 days
time to resolution of bloody diarrhea (E. coli [2]; 10 mmol/kg orally four times a day plus chloramphenicol 12.5 mg/kg orally four times a day): 36 h
clinical outcome (E. coli [2]; orally 10 mmol/kg four times a day): Bloody diarrhea resolved over four days
effectiveness as inhibitor relative to L-S-BSO [3]: about 20%
time to resolution of infection (Chlamydia trachomatous): 10 days
inhibitory activity relative to L-buthionine-S-sulfoximine (rat kidney gamma-GCS; expressed on the basis of the active isomer): about 0.1%

N[C@@H](CCC(=O)N[C@@H](CSN=O)C(=O)NCC(=O)O)C(=O)O [S-nitrosoglutathione]
clinical outcome (oral thrush): much improved in three days
clinical outcome (trypanosomes): blood smear is free of trypanosomes
clinical outcome [4]: culture of the ulcer becomes sterile over three days

c1nc[nH]n1 [1,2,4-trazole]
bacterial growth (S. typhimurium): inhibiting the growth of S. typhimurium

CC[C@H]1OC(=O)[C@H](C)[C@@H](O[C@H]2C[C@@](C)(OC)[C@@H](O)[C@H](C)O2)[C@H](C)[C@@H](O[C@@H]2O[C@H](C)C[C@H](N(C)C)[C@H]2O)[C@](C)(O)C[C@@H](C)C(=O)[C@H](C)[C@@H](O)[C@]1(C)O [erythromycin]
clinical outcome (mycoplasma): symptoms linger

CCCCS(=N)(=O)CCCC(N)C(=O)O (racemic) [DL-α-amino-δ-butylthio valeric acid-SR-sulfoximine]
clinical outcome (Streptomycetes): lesion in patient's cheek resolves completely

serinyl-S-nitrosocysteinyl-gluatamine
clinical outcome (Actinomycetes israelii): symptoms resolve over three weeks

O=C(N[C@H](CO)[C@H](O)c1ccc([N+](=O)[O-])cc1)C(Cl)Cl [Chloramphenicol, chloramphenicol]
usual time to effect (E. coli [5]): normally has effect in three days

CCCCS(=N)(=O)CCC(N)(CC)C(=O)O (racemic) [α-ethyl-DL-buthionine-SR-sulfoximine, α-Ethyl-D,L-buthionine-R,S-sulfoximine]
melting point: 203 to 205 °C
effectiveness as inhibitor relative to L-buthionine-S-sulfoximine (rat kidney gamma-GCS; highly purified rat kidney enzyme, DL,SR mixture): 0.025%

NC(=O)NO [hydroxyurea]
reduction in size of metastatic tumor [6]: 30%
